Data on 4 substances can be found in US10039838B2, “Car peptide for homing, diagnosis and targeted therapy for pulmonary and fibrotic disorders” (Vascular BioSciences, priority 2010, dated 2018).

Experiment [1] relates to MCT induced hypertensive rat lung. As to the kind of experiment: Peptide targeting study in monocrotaline (MCT)-induced pulmonary arterial hypertension, immunohistochemistry. The following applies: peptide 3.3 mg/kg via tail vein, 2 hours after injection, FIG. 4. It is filed as in vivo. The procedure:
A rat model of monocrotaline (MCT)-induced pulmonary arterial hypertension was used for this study. Briefly, male Sprague-Dawley rats (150-200 g, Harlan Laboratories, IN) were administered with a single subcutaneous injection of monocrotaline at 60 mg/kg (Sigma-Aldrich, MO), while control rats were administered 0.9% saline (FIG. 1). Rats were randomly selected and studied for peptide distribution studies on 1, 3, 7, 14 or 21 days after the treatment of monocrotaline.
(§1) The following peptides were labeled with 5-carboxyfluorescein (5FAM) and used for the lung targeting studies: CAR, 5FAM-CARSKNKDC; VCAM1, CVHSPNKKCGGSK-5FAM; Control, 5FAM-CGGGGGGGC. All peptides were synthesized by Anaspec (Anaspec Inc., CA). Peptides were resolved in PBS at the concentrations of 0.5 mg/mL.
MCT-treated or untreated rats were injected with peptide solution at a dose of 3.3 mg/kg body weight via the tail vein. […]
To determine the localization of the peptides, paraffin-embedded tissue sections were immunostained with either hematoxylin and eosin (FIGS. 2-3) or rabbit anti-fluoroscein isothiocyanate (FITC) antibody (Invitrogen, CA) followed by horseradish peroxidase-labeled anti-rabbit IgG secondary antibody (FIG. 4). […] To quantify the targeting efficiency of the peptides to the lung, the immunostained sections were scanned by Aperio Scanscope XT and analyzed using ImageScope software (Aperio Technologies, CA).

The subject of experiment [2] is severe occlusive PAH rat model. Kind of experiment: Blood pressure tracing, fasudil with CARK. In kind it is in vivo. The procedure:
(§2) Severe occlusive PAH rat model was used. Animals were injected with SU5416 (20 mg/kg; SUGEN Inc), followed by 3 weeks hypoxia, then followed by 2-10 weeks normoxia.
The peptide administered was a 7 amino acid variant to the CAR peptide used in previous examples. This variant (CARK) consisted of the following sequence: CARSKNK (SEQ ID NO: 2). In these experiments, CARK was administered at a dose of 3 mg/kg and fasudil administered at 1 mg/kg.
To measure the acute effects of fasudil with CARK administration on the right and left ventricular systolic pressure (or systolic aortic pressure), blood pressure measurements were performed on catheterized SU5w/hypoxia/normoxia-exposed rats with PAH.

For experiment [3], the system named is mouse lungs after bleomycin injection. Kind of experiment: Peptide targeting study in bleomycin-induced acute lung injury and pulmonary fibrosis model, immunohistochemistry. It is filed as in vivo. The following applies: for Distribution of staining in mouse lungs, acute lung injury model / Distribution of staining in mouse lungs, pulmonary fibrosis model: peptide 3.3 mg/kg via tail vein, 2 hours; for Distribution of staining in mouse lungs, pulmonary fibrosis model: 14 days after bleomycin injection, FIGS. 15-17. On the procedure:
A mouse model of bleomycin induced acute lung injury and pulmonary fibrosis was used for this study. Briefly, 6 WT C57Bl/6 male mice, 8-12 weeks were weighed and anesthetized, and given bleomycin (BL) intratracheally at 4 U/kg. At 3 days (acute lung injury model) and 14 days (pulmonary fibrosis model) after BL injection, peptides were injected via the tail vein.
as §1
BL-treated mice were injected with peptide solution at a dose of 3.3 mg/kg body weight via the tail vein. At two hours after the injection, mice were perfused with PBS containing 1% bovine serum albumin under the deep anesthesia with isofluorane at a rate of 3.0% and euthanized. Tissues were fixed by systemic perfusion with 10% buffered formalin via right ventricle. The lung was inflated by injection of 10% formalin through the trachea. Various organs were excised from the rat and fixed for additional twenty four hours and processed for immunohistochemistry.
To determine the localization of the peptides, paraffin-embedded tissue sections were immunostained with rabbit anti-fluoroscein isothiocyanate (FITC) antibody (Invitrogen, CA) followed by horseradish peroxidase-labeled anti-rabbit IgG secondary antibody. The peptide localization was then visualized by diaminobenzidine (DAB). An automated staining system, Discovery XT (Ventana, Ariz.) was used. To quantify the targeting efficiency of the peptides to the lung, the immunostained sections were scanned by Aperio Scanscope XT and analyzed using ImageScope software (Aperio Technologies, CA) (FIGS. 14-17).

Experiment [4] has as its system cell surface heparan sulfate and heparin. Particulars: US 20090036349; Jarvinen and Ruoslahti 2007; cited from earlier work.
The subject of experiment [5] is severe occlusive PAH rat model. As to the kind of experiment: Blood pressure tracing, imatinib with CAR. In kind it is in vivo. Particulars: CAR 3 mg/kg + imatinib 10 mg/kg, FIG. 25. On the procedure: as §2
The peptide administered was CAR, CARSKNKDC (SEQ ID NO: 1). In this experiment, CAR was administered at a dose of 3 mg/kg and imatinib administered at 10 mg/kg.
To measure the acute effects of imatinib with CAR administration on the right and left ventricular systolic pressure, blood pressure measurements were performed on catheterized SU5w/hypoxia/normoxia-exposed rats with PAH.

[6] abbreviates: 3 days after bleomycin injection, FIG. 14.

Entries after “also recorded” stand apart in the source; their conditions may differ. Primed or numbered codes have the meaning given here. Where no end group is shown, it is not given here. The star is where a group is joined. 5FAM = O=C1OC2(c3ccc(O)cc3Oc3cc(O)ccc32)c2ccc(C(=O)*)cc21; 5FAM′ = not defined here

“5FAM-CARSKNKDC (cysteine pairing not given here) [CAR-FITC, CAR peptide labeled with 5-carboxyfluorescein, detected with anti-FITC antibody]”: the “CAR-FITC staining of alveolar macrophages” value in experiment [1] is given as “alveolar macrophages take up the stain”.

With CARSKNK [CARK], the “Effect of CARK co-administration with fasudil on systolic aortic pressure (SAP)” value in experiment [2] (CARK 3 mg/kg + fasudil 1 mg/kg, compared to fasudil alone, FIG. 22) is on record as “only a minor reduction in SAP”. For the same substance, the “Effect of CARK co-administration with fasudil on LVSP” value in experiment [2] (CARK 3 mg/kg + fasudil 1 mg/kg, compared to fasudil alone, FIG. 23) is “only a minor reduction”. In addition, in experiment [2] (CARK 3 mg/kg + fasudil 1 mg/kg, compared to fasudil alone, FIGS. 22-23), the “Effect of CARK co-administration on RVSP lowering by fasudil” value is given as “enhanced the blood pressure lowering effect of fasudil on RVSP”. In addition, in experiment [2] (fasudil 10 mg/kg 30 minutes after cessation of CARK infusion, FIG. 24), the “Effect on RVSP and LVSP of fasudil administered after cessation of CARK infusion” value is “sustained, pulmonary-specific effect”.

Regarding CARSKNKDC, in experiment [3] (setting [6]), the “Staining intensity of CAR compared with VCAM1, acute lung injury model” value is given as “more intense”; the “Distribution of staining in mouse lungs, acute lung injury model” value is “stain the interstitium and inflammatory cells”. In addition, the “Distribution of staining in mouse lungs, pulmonary fibrosis model” value in experiment [3] is “Interstitial and inflammatory staining is seen in areas of lung fibrosis; also recorded: areas of dense fibrosis and spared areas showing little staining”. Further, the “Binding to cell surface heparan sulfate and heparin” value in experiment [4] is “binds to cell surface heparan sulfate and heparin”. Besides, in experiment [5], the “Effect of CAR co-administration on RVSP lowering by imatinib” value is listed as “enhanced the blood pressure lowering effect of imatinib on RVSP” and the “Effect of CAR co-administration with imatinib on LVSP” value is listed as “only a minor reduction in LVSP”.

As to “CVHSPNKKCGGSK-5FAM (CVHSPNKKCGGSK-{5FAM′}; cysteine pairing not given here) [VCAM1, reference compound]”, the “Distribution of staining in mouse lungs, acute lung injury model” value in experiment [3] (setting [6]) was “stain the interstitium and inflammatory cells”. The “Distribution of staining in mouse lungs, pulmonary fibrosis model” value in experiment [3] is “areas of mild fibrosis and spared areas showing little staining”.
